Experimental data: patent publication EP1976513B1 (priority 2006, dated 2007)
Where two headings read alike, the source gives them in different places.

Tests used:
[1] = molecular target: human serotonin reuptake transporter (Homo sapiens, UniProt P31645); assay: cell-based
[2] = molecular target: T1, human dopamine reuptake transporter (Homo sapiens, UniProt Q01959); assay: cell-based; conditions: read-out: Human IC50 (nM) hDAT
T1 construct: expressed in transfected cells; host or cells: CHO-K1 or HEK293

[3] = Human IC50 (nM) hSERT, recombinant human serotonin transporter (SERT)
[4] = recombinant human dopamine transporter (DAT)
[5] = recombinant human serotonin transporter (SERT), read-out: Human IC50 (nM) hSERT

T1 sequence (Q01959 whole entry): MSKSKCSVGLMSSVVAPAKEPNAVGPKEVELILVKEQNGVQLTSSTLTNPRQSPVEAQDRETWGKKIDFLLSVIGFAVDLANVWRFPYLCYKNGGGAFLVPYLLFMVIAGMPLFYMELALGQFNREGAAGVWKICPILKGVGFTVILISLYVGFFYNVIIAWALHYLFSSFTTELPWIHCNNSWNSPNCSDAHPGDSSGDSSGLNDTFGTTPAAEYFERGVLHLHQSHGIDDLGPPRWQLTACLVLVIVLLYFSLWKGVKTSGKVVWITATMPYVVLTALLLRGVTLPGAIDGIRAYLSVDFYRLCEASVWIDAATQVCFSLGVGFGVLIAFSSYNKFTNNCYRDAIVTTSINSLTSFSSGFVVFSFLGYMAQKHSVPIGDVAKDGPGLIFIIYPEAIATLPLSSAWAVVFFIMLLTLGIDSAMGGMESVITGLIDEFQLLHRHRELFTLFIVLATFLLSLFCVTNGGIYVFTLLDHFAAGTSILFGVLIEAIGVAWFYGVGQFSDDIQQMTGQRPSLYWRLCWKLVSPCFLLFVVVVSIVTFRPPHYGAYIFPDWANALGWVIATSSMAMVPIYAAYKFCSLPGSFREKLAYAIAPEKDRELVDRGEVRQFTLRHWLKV
human serotonin reuptake transporter, sequence (P31645 whole entry): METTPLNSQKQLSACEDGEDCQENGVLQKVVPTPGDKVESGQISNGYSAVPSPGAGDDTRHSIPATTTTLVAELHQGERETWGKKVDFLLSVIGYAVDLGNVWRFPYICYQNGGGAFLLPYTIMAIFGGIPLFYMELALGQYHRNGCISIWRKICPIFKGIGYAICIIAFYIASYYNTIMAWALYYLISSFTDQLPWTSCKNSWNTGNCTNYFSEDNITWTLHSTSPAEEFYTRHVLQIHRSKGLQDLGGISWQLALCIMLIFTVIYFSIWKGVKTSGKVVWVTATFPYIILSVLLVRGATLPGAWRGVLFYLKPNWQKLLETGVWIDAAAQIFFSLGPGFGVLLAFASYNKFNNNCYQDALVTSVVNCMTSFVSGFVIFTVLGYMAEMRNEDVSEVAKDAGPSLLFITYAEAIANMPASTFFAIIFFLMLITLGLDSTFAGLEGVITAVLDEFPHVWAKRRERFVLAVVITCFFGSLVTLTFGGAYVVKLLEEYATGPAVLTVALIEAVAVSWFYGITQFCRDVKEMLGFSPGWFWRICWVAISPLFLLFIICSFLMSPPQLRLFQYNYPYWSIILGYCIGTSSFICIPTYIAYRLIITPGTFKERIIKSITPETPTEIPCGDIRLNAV

SMILES	IC50 [1, 3] [nM]	IC50 [2, 4] [nM]	IC50 [1, 5] [nM]	IC50 ([1]; Human IC50 (nM) hSERT) [nM]	IC50 [2] [nM]
CNCC1(c2ccc(Cl)cc2Cl)CCCCC1 [Compound 65, 1-(1-(2,4-dichlorophenyl)cyclohexyl)-N-methylmethanamine]	1620	1940			
CN(C)CC1(c2ccc(Cl)cc2Cl)CCCCC1 [Compound 66, 1-(1-(2,4-dichlorophenyl)cyclohexyl)-N,N-dimethylmethanamine]	221	355			
CNCC1(c2ccc3cc(F)ccc3c2)CCCCC1 [Compound 67, 1-(1-(6-fluoronaphthalen-2-yl)cyclohexyl)-N-methylmethanamine]	230	1760			
CN(C)CC1(c2ccc3cc(F)ccc3c2)CCCCC1 [Compound 68, 1-(1-(6-fluoronaphthalen-2-yl)cyclohexyl)-N,N-dimethylmethanamine]		343	19		
CNCC1(c2ccc(F)c3ccccc23)CCCCC1 [Compound 69, 1-(1-(4-fluoronaphthalen-1-yl)cyclohexyl)-N-methylmethanamine]		605	930		
CN(C)CC1(c2ccc(F)c3ccccc23)CCCCC1 [Compound 70, 1-(1-(4-fluoronaphthalen-1-yl)cyclohexyl)-N,N-dimethylmethanamine]		214	29		
CN(C)CC1(c2ccc(Cl)c(Cl)c2)CC=CCC1 (centres unmarked) [Compound 72, 1-(1-(3,4-dichlorophenyl)cyclohex-3-enyl)-N,N-dimethylmethanamine]		1.7		136	
NCC1(c2ccc(Cl)c(Cl)c2)CCCC1 [Compound 87, (1-(3,4-dichlorophenyl)cyclopentyl)methanamine]	1470	139			
CNCC1(c2ccc(Cl)c(Cl)c2)CCCC1 [Compound 88, (1-(3,4-dichlorophenyl)cyclopentyl)-N-methylmethanamine]		93		829	
CNCC1(c2ccc(F)cc2)CCCCC1 [Compound 90, 1-(1-(4-fluorophenyl)cyclohexyl)-N-methylmethanamine]	839	3360			
NCC1(c2ccc(F)cc2)CCCCC1 [Compound 91, (1-(4-fluorophenyl)cyclohexyl)methaneamine]	> 10000	1830			
CNCC1(c2ccc(Cl)c(F)c2)CCCCC1 [Compound 95, (1-(4-chloro-3-fluorophenyl)cyclohexyl)-N-methylmethanamine]	480	324			
NCC1(c2ccc(Cl)c(F)c2)CCCCC1 [Compound 98, (1-(4-chloro-3-fluorophenyl)cyclohexyl)-methanamine]	> 10000	419			
CNCC1(c2ccc(C(F)(F)F)cc2)CCCCC1 [Compound 100, N-methyl-1-(1-(4-(trifluoromethyl)phenyl)-cyclohexyl)methanamine]	1500	3410			
CN(C)CC1(c2ccc3c(c2)OCO3)CCCCC1 [Compound 102, 1-(1-(benzo[d][1,3]dioxol-5-yl)cyclohexyl)-N,N-dimethylmethanamine]	195	420			
CNCC1(c2ccc3c(c2)OCO3)CCCCC1 [Compound 103, 1-(1-(benzo[d][1,3]dioxol-5-yl)cyclohexyl)-N-methylmethanamine]	3540	7740			
CNCC1(c2ccc(Cl)c(Cl)c2)CC=CC1 [Compound 168, 1-(1-(3,4-dichlorophenyl)cyclopent-3-enyl)-N-methylmethanamine]	1470	108			
NCC1(c2ccc(Cl)c(Cl)c2)CCCC(F)(F)C1 (centres unmarked) [Compound 204, (1-(3,4-dichlorophenyl)-3,3-difluorocyclohexyl)-methanamine]	2250	296			
NCC1(c2ccc3ccccc3c2)CCC(O)CC1 (centres unmarked) [Compound 207, 4-(aminomethyl)-4-(naphthalen-2-yl)cyclohexanol]		1020	142		
NCC1(c2ccc3ccccc3c2)CCC(O)CC1 (centres unmarked) [Compound 208, 4-(aminomethyl)-4-(naphthalen-2-yl)cyclohexanol]		7670	1990		
NCC1(c2ccc3ccccc3c2)CCC(Cl)CC1 (centres unmarked) [Compound 211, (4-chloro-1-(naphthalen-2-yl)cyclohexyl)methanamine]		195	55		
NCC1(c2ccc3ccccc3c2)CCC(F)CC1 (centres unmarked) [Compound 212, (4-fluoro-1-(naphthalen-2-yl)cyclohexyl)methanamine]		75	91		
NCC1(c2ccc3ccccc3c2)CCC(F)CC1 (centres unmarked) [Compound 213, (4-fluoro-1-(naphthalen-2-yl)cyclohexyl)methanamine]		337	283		

SMILES	IC50 [1, 3] [nM]	IC50 [2, 4] [nM]	IC50 [1, 5] [nM]	IC50 ([1]; Human IC50 (nM) hSERT) [nM]	IC50 [2] [nM]
NCC1(c2ccc3c(c2)OCO3)CCC(O)CC1 (centres unmarked) [Compound 214, 4-(aminomethyl)-4-(benzo[d][1,3]dioxol-5-yl)cyclohexanol]		> 10000	> 10000		
CC1(O)CCC(CN)(c2ccc3c(c2)OCO3)CC1 (centres unmarked) [Compound 215, 4-(aminomethyl)-4-(benzo[d][1,3]dioxol-5-yl)-1-methylcyclohexanol]		6240	4190		
CC1(O)CCC(CN)(c2ccc3c(c2)OCO3)CC1 (centres unmarked) [Compound 216, 4-(aminomethyl)-4-(benzo[d][1,3]dioxol-5-yl)-1-methylcyclohexanol]		> 10000	> 10000		
NCC1(c2ccc3ccccc3c2)CCC(O)(CF)CC1 (centres unmarked) [Compound 217, 4-(aminomethyl)-1-(fluoromethyl)-4-(naphthalen-2-yl)cyclohexanol]		1970	47		
NCC1(c2ccc3ccccc3c2)CCC(O)(CF)CC1 (centres unmarked) [Compound 218, 4-(aminomethyl)-1-(fluoromethyl)-4-(naphthalen-2-yl)cyclohexanol]		5590	480		
NCC1(c2ccc(OC(F)(F)F)cc2)CCC(O)CC1 (centres unmarked) [Compound 220, 4-(aminomethyl)-4-(4-(trifluoromethoxy)phenyl)cyclohexanol]		> 10000	6150		
NCC1(c2ccc3ccccc3c2)CCC(F)(F)CC1 [Compound 221, (4,4-difluoro-1-(naphthalen-2-yl)cyclohexyl)methanamine]		182	61		
CNCC1(c2ccc3ccccc3c2)CCC(C)(O)CC1 (centres unmarked) [Compound 222, 1-methyl-4-((methylamino)methyl)-4-(naphthalen-2-yl)-cyclohexanol]			609		2090
CNCC1(c2ccc3ccccc3c2)CCC(C)(O)CC1 (centres unmarked) [Compound 223, 1-methyl-4-((methylamino)methyl)-4-(naphthalen-2-yl)cyclohexanol]			73		874
CN(C)CC1(c2ccc3ccccc3c2)CCC(C)(O)CC1 (centres unmarked) [Compound 224, 4-((dimethylamino)methyl)-1-methyl-4-(naphthalen-2-yl)cyclohexanol]		993	69		
CN(C)CC1(c2ccc3ccccc3c2)CCC(O)CC1 (centres unmarked) [Compound 228, 4-((dimethylamino)methyl)-4-(naphthalen-2-yl)cyclohexanol]			96		1560
CN(C)CC1(c2ccc3ccccc3c2)CCC(O)CC1 (centres unmarked) [Compound 229, 4-((dimethylamino)methyl)-4-(naphthalen-2-yl)cyclohexanol]			11		40
CN(C)CC1(c2ccc3ccccc3c2)CCC(Cl)CC1 (centres unmarked) [Compound 230, 1-(4-chloro-1-(naphthalen-2-yl)cyclohexyl)-N,N-dimethylmethanamine]		11	30		
CN(C)CC1(c2ccc3ccccc3c2)CCC(F)CC1 (centres unmarked) [Compound 233, 1-(4-fluoro-1-(naphthalen-2-yl)cyclohexyl)-N,N-dimethylmethanamine]		3	37		
CN(C)CC1(c2ccc3ccccc3c2)CCC(F)CC1 (centres unmarked) [Compound 235, 1-(4-fluoro-1-(naphthalen-2-yl)cyclohexyl)-N,N-dimethylmethanamine]		92	9		
CN(C)CC1(c2ccc3c(c2)OCO3)CCC(O)CC1 (centres unmarked) [Compound 238, 4-(benzo[d][1,3]dioxol-5-yl)-4-((dimethylamino)methyl)cyclohexanol]		5720	1180		
CNCC1(c2ccc3c(c2)OCO3)CCC(C)(O)CC1 (centres unmarked) [Compound 239, 4-(benzo[d][1,3]dioxol-5-yl)-1-methyl-4-((methylamino)methyl)cyclohexanol]		9450	8660		
CN(C)CC1(c2ccc3c(c2)OCO3)CCC(C)(O)CC1 (centres unmarked) [Compound 240, 4-(benzo[d][1,3]dioxol-5-yl)-4-((dimethylamino)methyl)-1-methylcyclohexanol]		9030	1810		
CNCC1(c2ccc3c(c2)OCO3)CCC(C)(O)CC1 (centres unmarked) [Compound 241, 4-(benzo[d][1,3]dioxol-5-yl)-1-methyl-4-((methylamino)methyl)cyclohexanol]		> 10000	> 10000		
CN(C)CC1(c2ccc3c(c2)OCO3)CCC(C)(O)CC1 (centres unmarked) [Compound 242, 4-(benzo[d][1,3]dioxol-5-yl)-4-((dimethylamino)methyl)-1-methylcyclohexanol]		> 10000	7660		
CNCC1(c2ccc3ccccc3c2)CCC(O)(CF)CC1 (centres unmarked) [Compound 243, 1-(fluoromethyl)-4-((methylamino)methyl)-4-(naphthalen-2-yl)cyclohexanol]		851	26		
CN(C)CC1(c2ccc3ccccc3c2)CCC(O)(CF)CC1 (centres unmarked) [Compound 244, 4-((dimethylamino)methyl)-1-(fluoromethyl)-4-(naphthalen-2-yl)cyclohexanol]		334	14		
CNCC1(c2ccc3ccccc3c2)CCC(O)(CF)CC1 (centres unmarked) [Compound 245, 1-(fluoromethyl)-4-((methylamino)methyl)-4-(naphthalen-2-yl)cyclohexanol]		2270	538		
